Literature values as cited in US20090104212A1, “METHODS AND SYSTEMS FOR TREATING CELL PROLIFERATION DISORDERS USING TWO-PHOTON SIMULTANEOUS ABSORPTION” (Immunolight, priority 2007, published 2009).
Read-outs that look alike come from different tables or passages of the source. Non-standard residues stand in square brackets, D forms with d. Residues, ends and D or L forms follow the SMILES beside them. Bpa = N[CH](Cc1ccc(C(=O)c2ccccc2)cc1)C(=O)O; 2Nal = N[CH](Cc1ccc2ccccc2c1)C(=O)O; Aib = CC(C)(N)C(=O)O

Legend:
[1] = for kSET (Average): average over Λex 224, 266, 280 nm
tumors = details: in vivo

| duration of skin photosensitivity (clinical use) [h] | Structure (SMILES) | ESSET ([1]; Λex 224 nm) | kSET ([1]; Λex 224 nm) [s⁻¹] | ESSET ([1]; Λex 266 nm) | kSET ([1]; Λex 266 nm) [s⁻¹] | ESSET ([1]; Λex 280 nm) | kSET ([1]; Λex 280 nm) [s⁻¹] | kSET (Average) [1] [s⁻¹] | Length of photosensitization (in vivo) [h] | selectivity for tumors compared to normal tissues (tumors) |
| --- | --- | --- | --- | --- | --- | --- | --- | --- | --- | --- |
|  | CC(NC(=O)C(C)(C)NC(=O)C(Cc1ccc(C(=O)c2ccccc2)cc1)NC(=O)C(C)(C)NC(=O)C(C)NC(=O)C(C)(C)NC(=O)C(Cc1ccc2ccccc2c1)NC(=O)C(C)(C)N)C(=O)O (centres unmarked) [Compound 1B] (H-[Aib][2Nal][Aib]A[Aib][Bpa][Aib]A-OH; configuration not given here) | 96.3 | 2.44e+08 | 95 | 1.8e+08 | 94 | 1.36e+08 |  |  |  |
|  | CC(NC(=O)C(C)(C)NC(=O)C(Cc1ccc(C(=O)c2ccccc2)cc1)NC(=O)C(C)(C)NC(=O)C(Cc1ccc2ccccc2c1)NC(=O)C(C)(C)NC(=O)C(C)NC(=O)C(C)(C)N)C(=O)O (single isomer, unassigned) [Compound 2B] | 77 | 3.1e+07 | 81 | 3.9e+07 | 83 | 4.7e+07 | 3.9e+07 |  |  |
|  | CC1NC(=O)C(C)(C)NC(=O)C(Cc2ccc(C(=O)c3ccccc3)cc2)NC(=O)C(C)(C)NC(=O)C(C)NC(=O)C(C)(C)NC(=O)C(Cc2ccc3ccccc3c2)NC(=O)C(C)(C)NC1=O (centres unmarked) [Compound 1A] (cyclo([Aib][2Nal][Aib]A[Aib][Bpa][Aib]A); configuration not given here) | 80 | 3.8e+07 | 79 | 3.6e+07 | 79 | 3.6e+07 | 3.67e+07 |  |  |
| 24 to 48 | CC(=O)[O-].CC(=O)[O-].CCc1c(CC)c2cc3nc(cnc4cc(OCCOCCOCCOC)c(OCCOCCOCCOC)cc4ncc4nc(cc1[n-]2)C(CCCO)=C4C)C(C)=C3CCCO.O.[Lu+3] [Lutetium texahyrin, Motexafin lutetium] |  |  |  |  |  |  |  | 24 to 48 | one of the greatest reported selectivities for tumors |
